One assay deals with Factor VII. Particulars: LNP siRNA systems containing these lipids; cited from earlier work.
The test system of the next assay is target DNA. The assay can be described thus: AsCpf1 activity, mutational analysis. It counts as biochemical.
The next assay relates to pcDNA. The assay can be described thus: pcDNA cleavage by compound 1.15, gel electrophoresis. It counts as biochemical.
The next assay deals with supercoiled plasmid DNA. Nature of the assay: Plasmid DNA cleavage by small-molecule strand breakers (gel electrophoresis). It counts as biochemical. Particulars: for DNA cleavage activity on supercoiled plasmid: gel electrophoresis, FIG. 19A-19D; for DNA cleavage activity on supercoiled plasmid / Effect of reducing agent on DNA cleavage: supercoiled plasmid; for Effect of reducing agent on DNA cleavage: with reducing agent, FIG. 19A, 19B. The procedure: Nitracrine (compound 1.15) was synthesized according to the reaction scheme depicted in FIG. 5. Plasmid DNA was incubated with nitracrine alone (10, 12, 14 μM), nitracrine with exposure to UV (365 nm), or nitracrine with exposure to UV and reducing agent TCEP (FIG. 8A). The same experiment was repeated but using 16, 18, or 20 μM nitracrine (FIG. 8B).
Plasmid DNA was incubated with nitracrine alone (10, 12, 14 μM), nitracrine with exposure to UV (365 nm), or nitracrine with exposure to UV and reducing agent DTT (FIG. 9A). The same experiment was repeated but using 16, 18, or 20 μM nitracrine (FIG. 9B).
Plasmid DNA was incubated with 16 μM nitracrine and exposed to UV (365 nm) over a range of 30-60 minutes (FIG. 10).
DNA cleavage activity of synthetic strand breakers. A series of small molecule DNA strand breakers having diverse structures and cleavage mechanisms were tested (FIG. 19A-19D). A supercoiled plasmid was used as a model substrate DNA, as both single and double-strand breaks can easily be detected using gel electrophoresis.

“Also recorded” adds a separate entry of the source.

With `CCCCC/C=C\C/C=C\CCCCCCCCOCC(CN(C)C)OCCCCCCCC/C=C\C/C=C\CCCCC` (stereo not shown) [DLinDMA, 1,2-dilinoleyloxy-3-N,N-dimethylaminopropane], the “gene silencing potency in hepatocytes in vivo (rank order)” value (“gene silencing potency in hepatocytes” for short) in the assay with Factor VII is “DLinKC2-DMA>DLinKDMA>DLinDMA>>DLinDAP”.

For the molecule R176A: AsCpf1 mutant, REC1, the activity entry in the assay with target DNA was “reduced activities; also recorded: Reduced activity”. For R951A: AsCpf1 mutant, bridge helix, the activity result with target DNA is reported as “reduced activities”. `CN(C)CCCNc1c2ccccc2nc2cccc([N+](=O)[O-])c12` [compound 1.15, nitracrine]: the pcDNA cleavage entry is given as “pcDNA cleavage” with pcDNA (16 μM, UV (365 nm) from 30 to 60 min); “pcDNA cleavage” in the assay with pcDNA (10-20 μM, UV (365 nm), presence and absence of reducing agent DTT); “pcDNA cleavage” with pcDNA (10-20 μM, UV (365 nm), presence and absence of reducing agent TCEP). Turning to `CCCCC/C=C\C/C=C\CCCCCCCC(=O)OCC(CN(C)C)OC(=O)CCCCCCC/C=C\C/C=C\CCCCC` (stereo not shown) [DLinDAP, 1,2-dilineoyl-3-dimethylammonium-propane], in the assay on Factor VII, the “gene silencing potency in hepatocytes” value was “DLinKC2-DMA>DLinKDMA>DLinDMA>>DLinDAP”. As for G783P: AsCpf1 mutant, WED, the activity entry in the assay with target DNA is “reduced activities; also recorded: Reduced activity”.

For `CCCCC/C=C\C/C=C\CCCCCCCCC1(CCCCCCCC/C=C\C/C=C\CCCCC)OCC(CCN(C)C)O1` (stereo not shown) [DLinKC2-DMA, 1,2-dilinoleyl-4-(2-dimethylaminoethyl)-[1,3]-dioxolane], the “gene silencing potency in hepatocytes” value with Factor VII is “DLinKC2-DMA>DLinKDMA>DLinDMA>>DLinDAP”. As to `CCCCC/C=C\C/C=C\CCCCCCCCC1(CCCCCCCC/C=C\C/C=C\CCCCC)OCC(CN(C)C)O1` (stereo not shown) [DLinKDMA, 1,2-dilinoleyloxy-keto-N,N-dimethyl-3-aminopropane], the “gene silencing potency in hepatocytes” value in the assay on Factor VII is “DLinKC2-DMA>DLinKDMA>DLinDMA>>DLinDAP”.

With R192A: AsCpf1 mutant, REC1, the activity result in the assay on target DNA is given as “reduced activities; also recorded: Reduced activity”. `CC[C@@]1(O[C@H]2C[C@H](OC)[C@@H](O)[C@H](C)O2)[C@H](O[C@@H]2C[C@H](O)[C@@H](N(C)C)[C@H](C)O2)C2=Cc3c(O)c4c(c(O)c3C2=C(O)[C@@H]1[C@H]1C(=O)c2c(c(=[N+]=[N-])c3c(O)c5c(=O)ccc(=O)c5c(O)c23)[C@@H](O[C@@H]2C[C@H](O)[C@@H](N(C)C)[C@H](C)O2)[C@@]1(CC)O[C@H]1C[C@H](OC)[C@@H](O)[C@H](C)O1)C(=O)C=CC4=O` [Lomaiviticin C]: in the assay with supercoiled plasmid DNA, the “DNA cleavage activity on supercoiled plasmid” value (from here on “DNA cleavage activity”) is on record as “cleave DNA at low micromolar concentrations” and the “Effect of reducing agent on DNA cleavage” value is “accelerated by a reducing agent”. Take `CN(C)CCCNc1c2ccccc2nc2cccc([N+](=O)[O-])c12` [Nitracrine]: the “DNA cleavage over UV exposure time” value in the assay on supercoiled plasmid DNA (plasmid DNA, 16 μM nitracrine, UV 365 nm for 30-60 minutes) is listed as “Cleavage was observed under all conditions”. In addition, in the assay on supercoiled plasmid DNA (plasmid DNA, nitracrine 10-20 μM, UV 365 nm), the “DNA cleavage with exposure to UV” value is “DNA cleavage was observed at all nitracrine concentrations”. In the assay on supercoiled plasmid DNA (plasmid DNA, nitracrine 10-20 μM, UV 365 nm, DTT), the “DNA cleavage with exposure to UV and reducing agent DTT” value is recorded as “including with DTT”. In addition, in the assay on supercoiled plasmid DNA, the “DNA cleavage activity” value was “cleaves DNA when irradiated by light”.

Take `CC(C)C(=O)O[C@H]1c2c(c3c(=O)c4cccc(O)c4c(=O)c=3c2=[N+]=[N-])[C@@H](O)[C@H]2O[C@@]21C` [FL-120B]: in the assay on supercoiled plasmid DNA, the “DNA cleavage activity” value is listed as “cleave DNA at low micromolar concentrations” and the “Effect of reducing agent on DNA cleavage” value is reported as “accelerated by a reducing agent”.

The record behind these values is patent US12227742B2, “Nucleic acid modifiers” (THE BROAD INSTITUTE, INC., priority 2017, dated 2025).
